{"source": "patent US11311013B2", "about": "“Benzimidazole compound or salt thereof, agricultural and horticultural insecticidal and acaricidal agent containing said compound, and method for using same” (NIHON NOHYAKU CO., LTD., priority 2018, dated 2022)", "data": [{"test_system": "Diamondback moth (Plutella xylostella)", "experiment": "Insecticidal test on diamondback moth, dip of Chinese cabbage seedlings with laid eggs", "type": "in vivo", "conditions": "144 h, dip about 30 seconds, 25° C., 6 days after dip treatment, hatched larvae counted, read-out: insecticidal efficacy (corrected mortality rate) activity level", "text": "Insecticidal Test on Diamondback Moth (Plutella xylostella)\nAdults of diamondback moth were released onto Chinese cabbage seedlings and allowed to lay eggs thereon. At 2 days after the release of the adults, the Chinese cabbage seedlings with laid eggs were dipped for about 30 seconds in agrochemical dispersions diluted to 500 ppm, each of which contained a different benzimidazole compound represented by the general formula (1) of the present invention or salt thereof as an active ingredient. After air-dried, the seedlings were kept in a thermostatic chamber at 25° C. At 6 days after the dip treatment, the number of hatched larvae per plot was counted, the corrected mortality rate was calculated according to the formula shown below, and the insecticidal efficacy was evaluated according to the criteria of Test Example 2. This test was conducted in triplicate using 10 adults of diamondback moth per plot. Corrected mortality rate (%)=(Number of hatched larvae in a non-treatment plot−Number of hatched larvae in a treatment plot)/(Number of hatched larvae in a non-treatment plot)×100 [Expression 3]", "units": {"mortality at 500 ppm": "%"}, "values": [{"smiles": "CCS(=O)(=O)n1c(-c2ccc(OCC(F)(F)C(F)(F)F)nc2)nc2ccccc21", "note": "[Compound 1-2, 2-(2-(2,2,3,3,3-pentafluoropropyloxy)pyridin-5-yl)-1-ethanesulfonyl benzimidazole]", "mortality at 500 ppm": 100}]}, {"test_system": "Two-spotted spider mite (Tetranychus urticae)", "experiment": "Acaricidal action on two-spotted spider mite, kidney bean leaf disk spray", "type": "in vivo", "conditions": "500 ppm, 25° C., two days after treatment", "method": "Acaricidal Action on Two-Spotted Spider Mite (Tetranychus urticae)\nLeaf disk having a diameter of 2 cm was prepared by leaves of kidney bean, and the leaf disk was placed on the wetted filter paper. Adult hens of two-spotted spider mite were inoculated on the wetted filter paper, and then 50 ml of an agrochemical dispersion, prepared by diluting a formulation containing the benzimidazole compound represented by the general formula (1) of the present invention or salt thereof as an active ingredient to adjust each of the concentrations to 500 ppm, was sprayed on turntable uniformly. After the spraying, it was allowed to stand in a thermostatic chamber at 25° C. Two days after the treatment of an agrochemical dispersion, the dead mites were counted, the corrected mortality rate was calculated according to the formula shown below, and the acaricidal efficacy was evaluated according to the criteria of Test Example 2. This test was conducted in duplicate using 10 adult hens of two-spotted spider per plot. Corrected mortality (%)=(Number of dead mites in a non-treatment plot−Number of dead mites in a treatment plot)/(Number of dead mites in a non-treatment plot)×100 [Expression 4]", "values": [{"smiles": "CCS(=O)(=O)n1c(-c2ccc(OCC(F)(F)F)nc2)nc2ccccc21", "note": "[Compound 1-1]", "acaricidal efficacy (corrected mortality rate) activity level": "D or higher"}, {"smiles": "CCS(=O)(=O)n1c(-c2ccc(OCC(F)(F)C(F)(F)F)nc2)nc2ccccc21", "note": "[Compound 1-2, 2-(2-(2,2,3,3,3-pentafluoropropyloxy)pyridin-5-yl)-1-ethanesulfonyl benzimidazole]", "acaricidal efficacy (corrected mortality rate) activity level": "D or higher"}, {"smiles": "CS(=O)(=O)n1c(-c2ccc(OCC(F)(F)C(F)(F)F)nc2)nc2ccccc21", "note": "[Compound 1-3]", "acaricidal efficacy (corrected mortality rate) activity level": "D or higher"}, {"smiles": "CCCS(=O)(=O)n1c(-c2ccc(OCC(F)(F)C(F)(F)F)nc2)nc2ccccc21", "note": "[Compound 1-4]", "acaricidal efficacy (corrected mortality rate) activity level": "D or higher"}, {"smiles": "CCCCS(=O)(=O)n1c(-c2ccc(OCC(F)(F)C(F)(F)F)nc2)nc2ccccc21", "note": "[Compound 1-5]", "acaricidal efficacy (corrected mortality rate) activity level": "D or higher"}, {"smiles": "CCS(=O)(=O)n1c(-c2ccc(OCC(F)(F)C(F)(F)F)nc2)nc2ccc(Br)cc21", "note": "[Compound 1-10]", "acaricidal efficacy (corrected mortality rate) activity level": "D or higher"}, {"smiles": "CCS(=O)(=O)n1c(-c2ccc(OCC(F)(F)C(F)(F)F)nc2)nc2cc(Cl)ccc21", "note": "[Compound 1-12]", "acaricidal efficacy (corrected mortality rate) activity level": "D or higher"}, {"smiles": "CCS(=O)(=O)n1c(-c2ccc(OCC(F)(F)C(F)(F)F)nc2)nc2ccc(Cl)cc21", "note": "[Compound 1-13]", "acaricidal efficacy (corrected mortality rate) activity level": "D or higher"}, {"smiles": "CCS(=O)(=O)n1c(-c2ccc(OCC(F)(F)C(F)(F)F)nc2)nc2cc(Cl)c(Cl)cc21", "note": "[Compound 1-14]", "acaricidal efficacy (corrected mortality rate) activity level": "D or higher"}, {"smiles": "CCS(=O)(=O)n1c(-c2ccc(OCC(F)(F)C(F)(F)F)nc2)nc2cc(Br)c(Br)cc21", "note": "[Compound 1-15]", "acaricidal efficacy (corrected mortality rate) activity level": "D or higher"}, {"smiles": "CCS(=O)(=O)n1c(-c2ccc(OCC(F)(F)C(F)(F)F)nc2)nc2cc(C)c(C)cc21", "note": "[Compound 1-17]", "acaricidal efficacy (corrected mortality rate) activity level": "D or higher"}, {"smiles": "CCS(=O)(=O)n1c(-c2cnc(OCC(F)(F)C(F)(F)F)c(Cl)c2)nc2ccccc21", "note": "[Compound 1-18]", "acaricidal efficacy (corrected mortality rate) activity level": "D or higher"}, {"smiles": "CCS(=O)(=O)n1c(-c2ccc(OCC(F)(F)C(F)F)nc2)nc2ccccc21", "note": "[Compound 1-19]", "acaricidal efficacy (corrected mortality rate) activity level": "D or higher"}, {"smiles": "CCS(=O)(=O)n1c(-c2ccc(OCC(F)(F)C(F)(F)C(F)(F)F)nc2)nc2ccccc21", "note": "[Compound 1-20]", "acaricidal efficacy (corrected mortality rate) activity level": "D or higher"}, {"smiles": "CCS(=O)(=O)n1c(-c2ccc(OCC(F)(F)C(F)(F)C(F)(F)F)nc2)nc2ccc(Br)cc21", "note": "[Compound 1-22]", "acaricidal efficacy (corrected mortality rate) activity level": "D or higher"}, {"smiles": "CCS(=O)(=O)n1c(-c2ccc(OC(C(F)(F)F)C(F)(F)F)nc2)nc2ccccc21", "note": "[Compound 1-23]", "acaricidal efficacy (corrected mortality rate) activity level": "D or higher"}, {"smiles": "CCS(=O)(=O)n1c(-c2ccc(OCC(F)(F)C(F)C(F)(F)F)nc2)nc2ccccc21", "note": "(centres unmarked) [Compound 1-24]", "acaricidal efficacy (corrected mortality rate) activity level": "D or higher"}, {"smiles": "CCS(=O)(=O)n1c(-c2ccc(Oc3ccc(SC(F)(F)F)cc3)nc2)nc2ccccc21", "note": "[Compound 1-40]", "acaricidal efficacy (corrected mortality rate) activity level": "D or higher"}, {"smiles": "CCS(=O)(=O)n1c(-c2ccc(Oc3ccc([S+]([O-])C(F)(F)F)cc3)nc2)nc2ccccc21", "note": "(centres unmarked) [Compound 1-41]", "acaricidal efficacy (corrected mortality rate) activity level": "D or higher"}, {"smiles": "CCS(=O)(=O)n1c(-c2ccc(Oc3ccc(S(=O)(=O)C(F)(F)F)cc3)nc2)nc2ccccc21", "note": "[Compound 1-42]", "acaricidal efficacy (corrected mortality rate) activity level": "D or higher"}, {"smiles": "CCS(=O)(=O)n1c(-c2ccc(OCc3ccc(SC(F)(F)F)cc3)nc2)nc2ccccc21", "note": "[Compound 1-43]", "acaricidal efficacy (corrected mortality rate) activity level": "D or higher"}, {"smiles": "CCS(=O)(=O)n1c(-c2ccc(OCc3ccc([S+]([O-])C(F)(F)F)cc3)nc2)nc2ccccc21", "note": "(centres unmarked) [Compound 1-44]", "acaricidal efficacy (corrected mortality rate) activity level": "D or higher"}, {"smiles": "O=S(=O)(CCl)n1c(-c2ccc(OCC(F)(F)C(F)(F)F)nc2)nc2ccccc21", "note": "[Compound 1-45]", "acaricidal efficacy (corrected mortality rate) activity level": "D or higher"}, {"smiles": "CCS(=O)(=O)n1c(-c2ccc(Oc3ccc(OC(F)(F)F)cc3)nc2)nc2ccccc21", "note": "[Compound 1-46]", "acaricidal efficacy (corrected mortality rate) activity level": "D or higher"}, {"smiles": "CCCCOc1ccc(-c2nc3ccccc3n2S(=O)(=O)CC)cn1", "note": "[Compound 1-47]", "acaricidal efficacy (corrected mortality rate) activity level": "D or higher"}, {"smiles": "CCCCCOc1ccc(-c2nc3ccccc3n2S(=O)(=O)CC)cn1", "note": "[Compound 1-48]", "acaricidal efficacy (corrected mortality rate) activity level": "D or higher"}, {"smiles": "CCCCCCOc1ccc(-c2nc3ccccc3n2S(=O)(=O)CC)cn1", "note": "[Compound 1-49]", "acaricidal efficacy (corrected mortality rate) activity level": "D or higher"}, {"smiles": "CCS(=O)(=O)n1c(-c2ccc(OC3CCCC3)nc2)nc2ccccc21", "note": "[Compound 1-50]", "acaricidal efficacy (corrected mortality rate) activity level": "D or higher"}, {"smiles": "CCS(=O)(=O)n1c(-c2ccc(OC3CCCCCC3)nc2)nc2ccccc21", "note": "[Compound 1-51]", "acaricidal efficacy (corrected mortality rate) activity level": "D or higher"}, {"smiles": "CCS(=O)(=O)n1c(-c2cncc(OCC(F)(F)C(F)(F)F)c2)nc2ccccc21", "note": "[Compound 3-1]", "acaricidal efficacy (corrected mortality rate) activity level": "D or higher"}, {"smiles": "CCCOc1ccc(-c2nc3ccccc3n2S(=O)(=O)CC)cn1", "note": "[Compound 5-1]", "acaricidal efficacy (corrected mortality rate) activity level": "D or higher"}, {"smiles": "CCS(=O)(=O)n1c(-c2ccc(OC(C)C)nc2)nc2ccccc21", "note": "[Compound 5-2]", "acaricidal efficacy (corrected mortality rate) activity level": "D or higher"}, {"smiles": "CCS(=O)(=O)n1c(-c2ccc(OC3CCCCC3)nc2)nc2ccccc21", "note": "[Compound 5-3]", "acaricidal efficacy (corrected mortality rate) activity level": "D or higher"}, {"smiles": "CCS(=O)(=O)n1c(-c2ccc(OCCC(C)(C)C)nc2)nc2ccccc21", "note": "[Compound 5-4]", "acaricidal efficacy (corrected mortality rate) activity level": "D or higher"}, {"smiles": "CCS(=O)(=O)n1c(-c2ccc(OCCOC)nc2)nc2ccccc21", "note": "[Compound 5-5]", "acaricidal efficacy (corrected mortality rate) activity level": "D or higher"}, {"smiles": "CCS(=O)(=O)n1c(-c2ccc(OCCSC)nc2)nc2ccccc21", "note": "[Compound 5-6]", "acaricidal efficacy (corrected mortality rate) activity level": "D or higher"}, {"smiles": "CCS(=O)(=O)n1c(-c2ccc(Oc3ccc([Si](C)(C)C)cc3)nc2)nc2ccccc21", "note": "[Compound 5-8]", "acaricidal efficacy (corrected mortality rate) activity level": "D or higher"}, {"smiles": "CCS(=O)(=O)n1c(-c2cnc(OCC(F)(F)F)c(Cl)c2)nc2ccccc21", "note": "[Compound 5-9]", "acaricidal efficacy (corrected mortality rate) activity level": "D or higher"}, {"smiles": "CCS(=O)(=O)n1c(-c2cnc(OCC(F)(F)C(F)F)c(Cl)c2)nc2ccccc21", "note": "[Compound 5-10]", "acaricidal efficacy (corrected mortality rate) activity level": "D or higher"}, {"smiles": "CCS(=O)(=O)n1c(-c2ccc(OCCC(F)(F)C(F)(F)C(F)(F)C(F)(F)C(F)(F)C(F)(F)F)nc2)nc2ccccc21", "note": "[Compound 5-11]", "acaricidal efficacy (corrected mortality rate) activity level": "D or higher"}, {"smiles": "CCS(=O)(=O)n1c(-c2ccc(OCC(F)(F)C(F)(F)C(F)(F)C(F)(F)C(F)(F)C(F)F)nc2)nc2ccccc21", "note": "[Compound 5-12]", "acaricidal efficacy (corrected mortality rate) activity level": "D or higher"}, {"smiles": "CCCSc1ccc(-c2nc3ccccc3n2S(=O)(=O)CC)cn1", "note": "[Compound 5-14]", "acaricidal efficacy (corrected mortality rate) activity level": "D or higher"}, {"smiles": "CCCCSc1ccc(-c2nc3ccccc3n2S(=O)(=O)CC)cn1", "note": "[Compound 5-17]", "acaricidal efficacy (corrected mortality rate) activity level": "D or higher"}, {"smiles": "CCS(=O)(=O)n1c(-c2ccc(SC3CCCC3)nc2)nc2ccccc21", "note": "[Compound 5-18]", "acaricidal efficacy (corrected mortality rate) activity level": "D or higher"}, {"smiles": "CCS(=O)(=O)n1c(-c2ccc(SC3CCCCC3)nc2)nc2ccccc21", "note": "[Compound 5-19]", "acaricidal efficacy (corrected mortality rate) activity level": "D or higher"}, {"smiles": "CCS(=O)(=O)n1c(-c2ccc(SCC3CC3)nc2)nc2ccccc21", "note": "[Compound 5-20]", "acaricidal efficacy (corrected mortality rate) activity level": "D or higher"}, {"smiles": "CCS(=O)(=O)n1c(-c2ccc(SCc3ccccc3)nc2)nc2ccccc21", "note": "[Compound 5-21]", "acaricidal efficacy (corrected mortality rate) activity level": "D or higher"}, {"smiles": "CCCCN(CCCC)c1ccc(-c2nc3ccccc3n2S(=O)(=O)CC)cn1", "note": "[Compound 5-24]", "acaricidal efficacy (corrected mortality rate) activity level": "D or higher"}, {"smiles": "CCCCN(C)c1ccc(-c2nc3ccccc3n2S(=O)(=O)CC)cn1", "note": "[Compound 5-25]", "acaricidal efficacy (corrected mortality rate) activity level": "D or higher"}]}]}
